Source: US20250129074A1, “CHIMERIC COMPOUND FOR TARGETED DEGRADATION OF ANDROGEN RECEPTOR PROTEIN, PREPARATION METHOD THEREFOR, AND MEDICAL USE THEREOF” (Jiangsu Hengrui Pharmaceuticals Co., Ltd., priority 2021, published 2025)
Where two headings read alike, the source gives them in different places.

Key:
[1] = tested on: LNCaP cells; experiment: Inhibition of LNCaP proliferation (CellTiter-Glo); assay type: cell-based; conditions: Homo sapiens, 144 h, 0.1 nM R1881, six days; for Emax: read-out: Max (maximum proliferation inhibition rate)
Protocol: The plate was incubated in a 37° C., 5% CO2 cell incubator for three days. […] A blank control cell well containing 0.5% DMSO and a cell-free vehicle control well were set up. The plate was incubated in a 37° C., 5% CO2 cell incubator for six days.

[2] = target: T1, androgen receptor (AR) (Homo sapiens, UniProt P10275, T878A); experiment: Degradation activity on androgen receptor in LNCaP cells (AR ELISA); assay type: cell-based; conditions: for Dmax: read-out: Max (maximum AR degradation rate)
T1 construct: host or cells: LNCaP human prostate cancer cells
T1 sequence (P10275 1-920 T878A): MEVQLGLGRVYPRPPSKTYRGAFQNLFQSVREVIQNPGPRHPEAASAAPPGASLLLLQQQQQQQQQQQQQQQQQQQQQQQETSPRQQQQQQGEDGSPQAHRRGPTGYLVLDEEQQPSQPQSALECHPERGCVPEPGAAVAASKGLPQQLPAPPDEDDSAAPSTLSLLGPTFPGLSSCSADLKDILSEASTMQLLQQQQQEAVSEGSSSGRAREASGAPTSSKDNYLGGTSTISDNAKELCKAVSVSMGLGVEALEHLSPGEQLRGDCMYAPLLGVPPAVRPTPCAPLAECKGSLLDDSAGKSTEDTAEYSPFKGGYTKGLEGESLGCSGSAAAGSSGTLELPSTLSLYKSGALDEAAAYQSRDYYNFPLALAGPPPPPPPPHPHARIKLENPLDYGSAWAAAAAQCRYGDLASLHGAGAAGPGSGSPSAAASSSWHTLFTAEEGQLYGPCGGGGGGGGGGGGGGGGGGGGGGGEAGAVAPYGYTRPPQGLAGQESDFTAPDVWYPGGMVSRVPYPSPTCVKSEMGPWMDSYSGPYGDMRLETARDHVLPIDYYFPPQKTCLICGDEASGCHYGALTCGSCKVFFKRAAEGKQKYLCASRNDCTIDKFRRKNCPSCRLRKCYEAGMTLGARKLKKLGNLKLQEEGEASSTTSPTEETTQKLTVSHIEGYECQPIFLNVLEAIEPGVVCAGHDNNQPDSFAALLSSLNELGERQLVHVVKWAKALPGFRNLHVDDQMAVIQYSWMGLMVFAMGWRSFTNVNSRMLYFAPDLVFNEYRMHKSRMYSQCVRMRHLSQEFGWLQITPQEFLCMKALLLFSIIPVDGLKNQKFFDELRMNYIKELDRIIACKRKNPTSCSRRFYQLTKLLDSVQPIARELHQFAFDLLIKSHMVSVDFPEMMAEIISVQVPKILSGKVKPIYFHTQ
Protocol: The plate was incubated in a 37° C., 5% CO2 cell incubator for three days. […] A blank control cell well containing 0.5% DMSO was set up. The plate was incubated in a 37° C., 5% CO2 cell incubator for 24 hours. […] The lysate was well mixed by pipetting up and down and then centrifuged at 4000 rpm at 4° C. for 10 minutes. […] The plate was sealed and incubated in a 37° C. incubator for 1 hour. […] The plate was sealed and then incubated in a 37° C. incubator for 30 minutes.

[3] = 0.1 nM R1881, 24 hours, read-out: LNCaP DC50

C[C@H]1CC2(CCN(c3ccc(C(=O)N4CCC(CN5CCN(c6cc(NC7CCC(=O)NC7=O)ccn6)CC5)CC4)cc3)CC2)CN1c1ccc(C#N)c(Cl)c1 (stereo partly drawn) [Example 24, 2-Chloro-4-((3S)-8-(4-(4-((4-(4-((2,6-dioxopiperidin-3-yl)amino)pyridin-2-yl)piperazin-1-yl)methyl)piperidine-1-carbonyl)phenyl)-3-methyl-2,8-diazaspiro[4.5]decan-2-yl)benzonitrile]
IC50 [1]: 659 nM
Emax [1]: 54%
DC50 [2, 3]: 9.1 nM
Dmax ([2]; 0.1 nM R1881, 24 hours): 94%

C[C@H]1CC2(CCN(C(=O)c3ccc(SC4CCN(C5CN(c6ccc(C(=O)NC7CCC(=O)NC7=O)c(F)c6)C5)CC4)nc3)CC2)CN1c1ccc(C#N)c(Cl)c1 (stereo partly drawn) [Example 5, 4-(3-(4-((5-((S)-2-(3-Chloro-4-cyanophenyl)-3-methyl-2,8-diazaspiro[4.5]decane-8-carbonyl)pyridin-2-yl)thio)piperidin-1-yl)azetidin-1-yl)-N-(2,6-dioxopiperidin-3-yl)-2-fluorobenzamide]
IC50 [1]: 189 nM
Emax [1]: 72%
Dmax ([2]; 0.1 nM R1881, 24 hours): 86%
DC50 ([2]; read-out: LNCaP DC50, 0.1 nM R1881, 24 hours): 30.5 nM

C[C@H]1CC2(CCN(c3ccc(C(=O)N4CCC(CN5CCC(c6cccc(NC7CCC(=O)NC7=O)c6)CC5)CC4)nn3)CC2)CN1c1ccc(C#N)c(Cl)c1 (stereo partly drawn) [Example 20, 2-Chloro-4-((3S)-8-(6-(4-((4-(3-((2,6-dioxopiperidin-3-yl)amino)phenyl)piperidin-1-yl)methyl)piperidine-1-carbonyl)pyridazin-3-yl)-3-methyl-2,8-diazaspiro[4.5]decan-2-yl)benzonitrile]
IC50 [1]: 15 nM
Emax [1]: 59%
DC50 [2, 3]: 0.4 nM
Dmax ([2]; 0.1 nM R1881, 24 hours): 92%

C[C@H]1CC2(CCN(c3ccc(C(=O)N4CCC5(CC4)CC(N4CCN(c6ccc(N7CCC(=O)NC7=O)cc6)CC4)C5)nc3)CC2)CN1c1ccc(C#N)c(Cl)c1 [Example 32, (S)-2-Chloro-4-(8-(6-(2-(4-(4-(2,4-dioxotetrahydropyrimidin-1(2H)-yl)phenyl)piperazin-1-yl)-7-azaspiro[3.5]nonane-7-carbonyl)pyridin-3-yl)-3-methyl-2,8-diazaspiro[4.5]decan-2-yl)benzonitrile]
IC50 [1]: 3.1 nM
Emax [1]: 63%
DC50 [2, 3]: 1 nM
Dmax ([2]; 0.1 nM R1881, 24 hours): 95%

C[C@H]1CC2(CCN(c3ccc(C(=O)N4CCC(CN5CCN(c6ccccc6NC6CCC(=O)NC6=O)CC5)CC4)cc3)CC2)CN1c1ccc(C#N)c(Cl)c1 (stereo partly drawn) [Example 39, 2-Chloro-4-((3S)-8-(4-(4-((4-(2-((2,6-dioxopiperidin-3-yl)amino)phenyl)piperazin-1-yl)methyl)piperidine-1-carbonyl)phenyl)-3-methyl-2,8-diazaspiro[4.5]decan-2-yl)benzonitrile]
DC50 [2, 3]: 13.9 nM
Dmax ([2]; 0.1 nM R1881, 24 hours): 86%

C[C@H]1CC2(CCN(c3ccc(C(=O)N4CCC(CN5CCN(c6ccc(C(=O)NC7CCC(=O)NC7=O)cc6)CC5)CC4)cc3)CC2)CN1c1ccc(C#N)c(Cl)c1 (stereo partly drawn) [Example 43, 4-(4-((1-(4-((S)-2-(3-Chloro-4-cyanophenyl)-3-methyl-2,8-diazaspiro[4.5]decan-8-yl)benzoyl)piperidin-4-yl)methyl)piperazin-1-yl)-N-(2,6-dioxopiperidin-3-yl)benzamide]
DC50 [2, 3]: 9.3 nM
Dmax ([2]; 0.1 nM R1881, 24 hours): 92%

C[C@H]1CC2(CCN(c3ccc(C(=O)N4CC(CN5CCN(c6cccc(NC7CCC(=O)NC7=O)c6)CC5)C4)nn3)CC2)CN1c1ccc(C#N)c(Cl)c1 (stereo partly drawn) [Example 22, 2-Chloro-4-((3S)-8-(6-(3-((4-(3-((2,6-dioxopiperidin-3-yl)amino)phenyl)piperazin-1-yl)methyl)azetidine-1-carbonyl)pyridazin-3-yl)-3-methyl-2,8-diazaspiro[4.5]decan-2-yl)benzonitrile]
DC50 [2, 3]: 0.4 nM
Dmax ([2]; 0.1 nM R1881, 24 hours): 97%
